# Read-outs that look alike come from different tables or passages of the source.
# Key:
# F. graminearum [1] = format: cell-based, Fusarium graminearum; settings: 100 μM; rich solid medium, no host
# F. graminearum [2] = format: in vivo, Fusarium graminearum; settings: 100 μM chaperone; for Proliferation of F. graminearum on host tissue (GFP-tagged fungal cells, PCR): wheat tissues; for Cell death markers (chlorosis, TUNEL-positive nuclei, Evans Blue staining, ROS induction) by the fungal pathogen: wheat
# Fusarium graminearum = format: in vivo; settings: 100 μM chaperone; 10 days postinoculation
# [3] = system: Physcomitrella patens gametophore cells; format: cell-based; settings: for Tunicamycin induced cell death: moss, co-treatment 100 μM chaperone with 10 μg/ml tunicamycin, 72h
# [4] = system: Triticum aestivum leaf segments; format: cell-based; settings: for Tunicamycin induced cell death: wheat, co-treatment 100 μM chaperone with 10 μg/ml tunicamycin, 72h
# F. graminearum [5] = format: in vivo, Fusarium graminearum; settings: 100 μM chaperone; for Proliferation of F. graminearum on host tissue (GFP-tagged fungal cells, PCR): moss tissues; for Cell death markers (chlorosis, TUNEL-positive nuclei, Evans Blue staining, ROS induction) by the fungal pathogen: moss
Compound,Fungal growth and reproduction on solid growth medium (F. graminearum [1]),"Proliferation of F. graminearum on host tissue (GFP-tagged fungal cells, PCR) (F. graminearum [2])","Cell death markers (chlorosis, TUNEL-positive nuclei, Evans Blue staining, ROS induction) by the fungal pathogen (F. graminearum [2])",Fungal growth on inoculated wheat seeds (Fusarium graminearum),Tunicamycin induced cell death [3],Tunicamycin induced cell death [4],"Proliferation of F. graminearum on host tissue (GFP-tagged fungal cells, PCR) (F. graminearum [5])","Cell death markers (chlorosis, TUNEL-positive nuclei, Evans Blue staining, ROS induction) by the fungal pathogen (F. graminearum [5])",Cell death (Evans Blue staining) compared to untreated control [3],Cell death (Evans Blue staining) compared to untreated control [4]
"O=C(O)CCCc1ccccc1 [PBA, 4-phenylbutyric acid]",did not affect fungal growth and reproduction,significantly suppress,attenuated,suppression of fungal growth,attenuated,attenuated,significantly suppress,attenuated,,
"C[C@H](CCC(=O)NCCS(=O)(=O)O)[C@H]1CC[C@H]2[C@@H]3[C@@H](O)C[C@@H]4C[C@H](O)CC[C@]4(C)[C@H]3CC[C@]12C [TUDCA, tauroursodeoxycholic acid]",did not affect fungal growth and reproduction,significantly suppress,attenuated,suppression of fungal growth,attenuated,attenuated,significantly suppress,attenuated,,
Tunicamycin,,,,,,,,,more cell death,more cell death

# Reference: patent publication US20100261694A1 (priority 2009, published 2010)
